Active and inactive are the calls of the source. No cut-off for these calls is given here.
What was measured:
[1] = molecular target: T1, Tyrosine-protein phosphatase non-receptor type 11 (Mus musculus) (UniProt P35235); assay: Inhibition of SHP2-dependent ERK1/2 activation in EGF-stimulated mouse NIH/3T3 cells assessed as phosphorylated ERK1/2 level at 10 uM treated for 3 hrs before EGF challenge measured after 60 mins of EGF stimulation by immunoblot analysis; format: cell-based; details: NIH3T3
T1 sequence (whole entry): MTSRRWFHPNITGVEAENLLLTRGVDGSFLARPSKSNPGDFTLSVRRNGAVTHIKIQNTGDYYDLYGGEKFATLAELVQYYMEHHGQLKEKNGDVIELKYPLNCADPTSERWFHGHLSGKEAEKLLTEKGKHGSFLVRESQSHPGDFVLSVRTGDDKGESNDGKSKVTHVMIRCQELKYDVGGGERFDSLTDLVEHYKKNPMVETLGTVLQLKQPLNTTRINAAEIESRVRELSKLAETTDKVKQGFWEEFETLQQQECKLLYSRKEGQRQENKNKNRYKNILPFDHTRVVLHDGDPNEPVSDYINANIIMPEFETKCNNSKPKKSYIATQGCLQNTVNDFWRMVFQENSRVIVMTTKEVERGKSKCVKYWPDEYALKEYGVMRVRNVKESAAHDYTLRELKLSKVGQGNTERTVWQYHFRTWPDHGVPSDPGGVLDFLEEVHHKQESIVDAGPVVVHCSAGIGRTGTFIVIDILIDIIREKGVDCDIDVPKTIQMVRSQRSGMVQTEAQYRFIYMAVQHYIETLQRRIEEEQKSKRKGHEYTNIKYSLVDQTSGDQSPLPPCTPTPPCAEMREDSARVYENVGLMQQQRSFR

[2] = molecular target: T2, Dual specificity protein phosphatase CDC14A (Homo sapiens, UniProt Q9UNH5); assay: Inhibition of Cdc14A expressed in Escherichia coli assessed as inhibition of p-nitrophenyl phosphate hydrolysis at pH 7 by spectrophotometry
T2 sequence (Q9UNH5 whole entry): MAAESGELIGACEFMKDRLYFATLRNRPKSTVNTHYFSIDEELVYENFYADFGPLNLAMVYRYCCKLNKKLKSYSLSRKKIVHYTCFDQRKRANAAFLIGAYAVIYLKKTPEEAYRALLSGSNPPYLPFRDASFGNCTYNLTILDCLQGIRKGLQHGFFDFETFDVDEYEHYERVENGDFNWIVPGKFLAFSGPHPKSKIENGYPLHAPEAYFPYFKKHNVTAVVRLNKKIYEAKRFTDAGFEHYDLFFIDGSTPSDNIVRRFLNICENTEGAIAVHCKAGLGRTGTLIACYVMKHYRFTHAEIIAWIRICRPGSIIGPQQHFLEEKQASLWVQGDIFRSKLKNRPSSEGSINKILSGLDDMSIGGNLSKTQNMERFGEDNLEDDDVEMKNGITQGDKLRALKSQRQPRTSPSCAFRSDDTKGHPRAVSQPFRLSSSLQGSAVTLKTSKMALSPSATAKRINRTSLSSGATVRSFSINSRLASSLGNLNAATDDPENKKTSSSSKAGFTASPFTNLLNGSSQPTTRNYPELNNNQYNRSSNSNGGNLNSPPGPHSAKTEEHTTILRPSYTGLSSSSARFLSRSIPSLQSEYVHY

Cn1c(-c2ccccc2)c(-c2cn(CCC(=O)Nc3ccc(-c4ccccc4)cc3)nn2)c2cc(C(=O)O)c(O)cc21
inhibition [1]: Active
IC50 [2]: > 50 µM
